The source of these data is ChEMBL document CHEMBL4699440, “Comprehensive review on the anti-bacterial activity of 1,2,3-triazole hybrids” (Eur J Med Chem, 2019).

Experiment [1] relates to Klebsiella pneumoniae. The experiment is described as follows: Antibacterial activity against Klebsiella pneumoniae incubated for 16 to 18 hrs by serial plate dilution method. The settings on record: time hrs 16-18. Type of experiment: functional.
Experiment [2] concerns Aspergillus fumigatus. The experiment is described as follows: Antifungal activity against Aspergillus fumigatus NCIM 902 incubated for 3 to 4 days by serial plate dilution method. Type of experiment: functional. The following applies: time day 3-4.
Experiment [3] relates to Talaromyces marneffei. Put plainly: Antifungal activity against Penicillium marneffei incubated for 3 to 4 days by serial plate dilution method. The following applies: time day 3-4. Type of experiment: functional.
In experiment [4] the test system is Pseudomonas aeruginosa. Put plainly: Antibacterial activity against Pseudomonas aeruginosa ATCC 27853 incubated for 16 to 18 hrs by serial plate dilution method. The class given is functional. The settings on record: time hrs 16-18.
For experiment [5], the system named is Aspergillus flavus. The experiment is described as follows: Antifungal activity against Aspergillus flavus NCIM 524 incubated for 3 to 4 days by serial plate dilution method. The class given is functional. The following applies: time day 3-4.
Experiment [6] has as its system Trichophyton mentagrophytes. Put plainly: Antifungal activity against Trichophyton mentagrophytes incubated for 3 to 4 days by serial plate dilution method. The following applies: time day 3-4. The class given is functional.
The test system of experiment [7] is Staphylococcus aureus. Put plainly: Antibacterial activity against methicillin-resistant Staphylococcus aureus ATCC 25923 incubated for 16 to 18 hrs by serial plate dilution method. The class given is functional. The settings on record: time hrs 16-18.
The test system of experiment [8] is Escherichia coli. Put plainly: Antibacterial activity against Escherichia coli ATCC 25922 incubated for 16 to 18 hrs by serial plate dilution method. The following applies: time hrs 16-18. The class given is functional.
Experiment [9] has as its system Bacillus cereus. The experiment is described as follows: Antibacterial activity against Bacillus cereus. The class given is functional.
Experiment [10] concerns Staphylococcus aureus. Put plainly: Antibacterial activity against Staphylococcus aureus. Type of experiment: functional.
The test system of experiment [11] is KB. Put plainly: Cytotoxicity against human KB cells. Type of experiment: cell-based. The settings on record: Homo sapiens, KB.

Structures are written as SMILES. Converted amounts (≈) assume the structure as drawn.

Regarding `COc1ccc(/C=N/NC(=O)c2nnn(-c3cc(C(F)(F)F)nc4c(C(F)(F)F)cccc34)c2C)cc1`, the minimal inhibitory concentration (MIC) in experiment [1], in experiment [2], in [3], in experiment [4], in experiment [5] and in [6] was 6.25 µg/mL (≈ 12 µM) throughout. Moreover, the minimal inhibitory concentration (MIC) in experiment [7] and in experiment [8] was 6.25 µg/mL (≈ 12 µM) each time.

As for `COc1ccc(/C=N/NC(=O)c2nnn(-c3cc(C(F)(F)F)nc4c(C(F)(F)F)cccc34)c2C)cc1OC`, the MIC in experiment [1], in experiment [2], in [3], in [4], in experiment [5] and in experiment [6] was 6.25 µg/mL (≈ 11.3 µM) in each case. The minimal inhibitory concentration (MIC) in experiment [7] and in experiment [8] was 6.25 µg/mL (≈ 11.3 µM) each time.

As for `COc1cccc(/C=N/NC(=O)c2nnn(-c3cc(C(F)(F)F)nc4c(C(F)(F)F)cccc34)c2C)c1`, the minimum inhibitory concentration (MIC) in experiment [1], in experiment [2], in experiment [3], in experiment [4], in experiment [5] and in experiment [6] was 6.25 µg/mL (≈ 12 µM) throughout. Besides, the minimum inhibitory concentration (MIC) in [7] and in experiment [8] was 6.25 µg/mL (≈ 12 µM) each time.

For the molecule `Cc1c(C(=O)N/N=C/c2ccc(O)cc2)nnn1-c1cc(C(F)(F)F)nc2c(C(F)(F)F)cccc12`, the minimal inhibitory concentration (MIC) in experiment [1], in experiment [2], in experiment [3], in [4], in [5] and in experiment [6] was 6.25 µg/mL (≈ 12.3 µM) throughout. Moreover, the MIC in experiment [7] and in experiment [8] was 6.25 µg/mL (≈ 12.3 µM) in each case.

For the molecule `COc1ccc2cc(/C=N/NC(=O)c3nnn(-c4cc(C(F)(F)F)nc5c(C(F)(F)F)cccc45)c3C)ccc2c1`, the MIC in experiment [1], in experiment [2], in experiment [3], in experiment [4], in [5] and in experiment [6] was 6.25 µg/mL (≈ 10.9 µM) each time. The minimal inhibitory concentration (MIC) in experiment [7] and in experiment [8] was 6.25 µg/mL (≈ 10.9 µM) throughout.

Consider `COc1ccc(/C=N/NC(=O)c2nnn(-c3cc(C(F)(F)F)nc4c(C(F)(F)F)cccc34)c2C)c(OC)c1OC`, for which the minimum inhibitory concentration (MIC) in experiment [1], in [2], in experiment [3], in experiment [4], in [5] and in experiment [6] was 6.25 µg/mL (≈ 10.7 µM) throughout. In addition, the MIC in experiment [7] and in experiment [8] was 6.25 µg/mL (≈ 10.7 µM) throughout.

Consider `COc1ccc(/C=N/NC(=O)c2nnn(-c3cc(C(F)(F)F)nc4c(C(F)(F)F)cccc34)c2C)c([N+](=O)[O-])c1OC`, for which the MIC in [1], in experiment [2], in [3], in experiment [4], in experiment [5] and in experiment [6] was 6.25 µg/mL (≈ 10.5 µM) in each case. Further, the MIC in experiment [7] and in [8] was 6.25 µg/mL (≈ 10.5 µM) throughout.

Regarding `Cc1ccsc1/C=N/NC(=O)c1nnn(-c2cc(C(F)(F)F)nc3c(C(F)(F)F)cccc23)c1C`, the minimal inhibitory concentration (MIC) in experiment [1], in experiment [2], in experiment [3], in experiment [4], in experiment [5] and in experiment [6] was 6.25 µg/mL (≈ 12.2 µM) each time. The MIC in [7] and in experiment [8] was 6.25 µg/mL (≈ 12.2 µM) each time.

In the case of `Cc1c(C(=O)N/N=C/c2ccc([N+](=O)[O-])cc2)nnn1-c1cc(C(F)(F)F)nc2c(C(F)(F)F)cccc12`, the minimum inhibitory concentration (MIC) in [1], in [2], in experiment [3], in experiment [4], in [5] and in experiment [6] was 6.25 µg/mL (≈ 11.6 µM) each time. For the same molecule, the MIC in experiment [7] and in [8] was 6.25 µg/mL (≈ 11.6 µM) throughout.

Regarding `Cc1c(C(=O)N/N=C/c2cccnc2)nnn1-c1cc(C(F)(F)F)nc2c(C(F)(F)F)cccc12`, the MIC in [1], in experiment [2], in experiment [3], in experiment [4], in experiment [5] and in experiment [6] was 6.25 µg/mL (≈ 12.7 µM) each time. In addition, the minimal inhibitory concentration (MIC) in experiment [7] and in experiment [8] was 6.25 µg/mL (≈ 12.7 µM) in each case.

As for `CC(C)C[C@H](NC(=O)CNC(=O)C(C)(C)NC(=O)[C@@H](NC(=O)C(C)(C)NC(=O)[C@H](CCC(N)=O)NC(=O)[C@H](C)NC(=O)C(C)(C)NC(=O)[C@H](C)NC(=O)C(C)(C)NC(=O)[C@@H]1CCN(C(=O)C(C)(C)n2cc(-c3ccc4ccc5cccc6ccc3c4c56)nn2)C1)C(C)C)C(=O)NC(C)(C)C(=O)N1CCC[C@@H]1C(=O)N[C@H](C(=O)NC(C)(C)C(=O)NC(C)(C)C(=O)N[C@@H](CCC(N)=O)C(=O)N[C@@H](CCC(N)=O)C(=O)N[C@H](CO)Cc1ccccc1)C(C)C`, the MIC in experiment [9] and in experiment [10] was 1.56 µg/mL (≈ 0.718 µM) each time. It took 2.9 µg/mL (≈ 1.33 µM) to reach half-maximal inhibition in [11] (IC50).

In the case of `CC(C)C[C@H](NC(=O)CNC(=O)C(C)(C)NC(=O)[C@@H](NC(=O)C(C)(C)NC(=O)[C@H](CCC(N)=O)NC(=O)[C@H](C)NC(=O)C(C)(C)NC(=O)[C@H](C)NC(=O)C(C)(C)NC(=O)[C@@H]1CCN(C(=O)C(C)(C)n2cc(-c3ccc(-c4ccccc4)cc3)nn2)C1)C(C)C)C(=O)NC(C)(C)C(=O)N1CCC[C@@H]1C(=O)N[C@H](C(=O)NC(C)(C)C(=O)NC(C)(C)C(=O)N[C@@H](CCC(N)=O)C(=O)N[C@@H](CCC(N)=O)C(=O)N[C@H](CO)Cc1ccccc1)C(C)C`, the minimum inhibitory concentration (MIC) in experiment [9] and in experiment [10] was 1.56 µg/mL (≈ 0.734 µM) in each case. Also, the IC50 in experiment [11] stood at 2.9 µg/mL (≈ 1.36 µM).

As to `COc1ccc2ccc(-c3cn(C(C)(C)C(=O)N4CC[C@@H](C(=O)NC(C)(C)C(=O)N[C@@H](C)C(=O)NC(C)(C)C(=O)N[C@@H](C)C(=O)N[C@@H](CCC(N)=O)C(=O)NC(C)(C)C(=O)N[C@H](C(=O)NC(C)(C)C(=O)NCC(=O)N[C@@H](CC(C)C)C(=O)NC(C)(C)C(=O)N5CCC[C@@H]5C(=O)N[C@H](C(=O)NC(C)(C)C(=O)NC(C)(C)C(=O)N[C@@H](CCC(N)=O)C(=O)N[C@@H](CCC(N)=O)C(=O)N[C@H](CO)Cc5ccccc5)C(C)C)C(C)C)C4)nn3)cc2c1`, the MIC in experiment [9] and in experiment [10] was 1.56 µg/mL (≈ 0.733 µM) each time. Also, the IC50 in experiment [11] came out at 2.9 µg/mL (≈ 1.36 µM).

Turning to `CC(C)C[C@H](NC(=O)CNC(=O)C(C)(C)NC(=O)[C@@H](NC(=O)C(C)(C)NC(=O)[C@H](CCC(N)=O)NC(=O)[C@H](C)NC(=O)C(C)(C)NC(=O)[C@H](C)NC(=O)C(C)(C)NC(=O)[C@@H]1CCN(C(=O)C(C)(C)n2cc(-c3cccc(C(F)(F)F)c3)nn2)C1)C(C)C)C(=O)NC(C)(C)C(=O)N1CCC[C@@H]1C(=O)N[C@H](C(=O)NC(C)(C)C(=O)NC(C)(C)C(=O)N[C@@H](CCC(N)=O)C(=O)N[C@@H](CCC(N)=O)C(=O)N[C@H](CO)Cc1ccccc1)C(C)C`, the MIC in experiment [9] and in [10] was 1.56 µg/mL (≈ 0.737 µM) each time. In [11], the half-maximal inhibitory concentration (IC50) was found to be 2.9 µg/mL (≈ 1.37 µM).

As for `CC(=O)C(C)(C)C(=O)N1CC[C@@H](C(=O)NC(C)(C)C(=O)N[C@@H](C)C(=O)NC(C)(C)C(=O)N[C@@H](C)C(=O)N[C@@H](CCC(N)=O)C(=O)NC(C)(C)C(=O)N[C@H](C(=O)NC(C)(C)C(=O)NCC(=O)N[C@@H](CC(C)C)C(=O)NC(C)(C)C(=O)N2CCC[C@@H]2C(=O)N[C@H](C(=O)NC(C)(C)C(=O)NC(C)(C)C(=O)N[C@@H](CCC(N)=O)C(=O)N[C@@H](CCC(N)=O)C(=O)N[C@H](CO)Cc2ccccc2)C(C)C)C(C)C)C1`, the MIC in experiment [9] and in experiment [10] was 1.56 µg/mL (≈ 0.801 µM) throughout. The IC50 in [11] came to 1.56 µg/mL (≈ 0.801 µM).

A word on the MIC: it is the least concentration at which growth counts as inhibited. Read a high MIC as a need for much substance. The term IC50 denotes the point on the concentration scale where inhibition reaches its midpoint.
